Measurements taken from paper PMC9748900, “Unconventional isoquinoline-based SERMs elicit fulvestrant-like transcriptional programs in ER+ breast cancer cells” (NPJ Breast Cancer, 2022).
Entries after “also recorded” stand apart in the source; their conditions may differ.

Experiments:
[1] = system: Ishikawa endometrial cells; assay: Alkaline phosphatase (AP) assay in Ishikawa cells; type: cell-based, human; details: 1 nM E2 or 1 μM compound, 72 h, absorbance at 405 nm, mean + std. dev., n = 3-9
From the text: SERM enhancement of ERα accumulation in breast cancer cells correlates with uterotrophic activities[22],[30]. Despite the inclusion of side arms from known SERDs, most T6Is appeared SERM-like in breast cancer cells as they increased ERα levels. To measure the SERM-agonist activities of the T6Is, we employed an AP activity assay in Ishikawa endometrial cells[22],[32],[40]. […] Many T6Is show unexpected AP activities in these cells. […] Therefore, we would expect these SERMs to show a greater induction of AP (Supplementary Fig. 5). […] This difference was significant (p = 0.004) compared to 4OHT, which measured 0.68 ± 0.12 absorbance units. In most studies of SERM-agonist activities, AP assays are combined with increases in uterine wet-weight in vivo[22],[41],[42].
AP assays were performed as described. Briefly, 15,000 Ishikawa cells were seeded into 96-well plates then placed in serum-starved medium for 48–72 h. Cells were treated for three days with veh, hormone, SERM, or SERD. The media was aspirated and the cells were frozen at −80 °C for at least 24 h. Cells were thawed then incubated with p-nitrophenyl phosphate (ThermoFisher) chromogenic AP substrate. After 60 min at 40 °C, absorbance was read at 405 nm on a BioTek Cytation 5 plate reader.

[2] = system: transcriptome of T47D breast cancer cells; assay: RNA sequencing of T47D cells; type: cell-based
Method: We next used RNA transcriptomic analysis (RNAseq) to identify differentially affected genes. […] All sequencing runs were performed with three replicates per treatment.
T47D breast cancer cells were grown in 6-well dishes at 50,000 cells per well. […] After 24 h, they were placed in serum-starved media for 48 h. […] RNA was isolated using a Qiagen RNeasy Kit then sent to Novogene for sequencing and bioinformatics analysis.

[3] = system: SUMO1; assay: SUMO1 immunofluorescence in T47D cells; type: cell-based; details: 1 µM, 16 h
Method: Immunofluorescence was used to study the effects of these treatments on SUMO1 protein expression in these cells. […] Cellular localization was resolved using phalloidin to stain actin and DAPI to stain nuclei. […] Further studies are needed to decipher the role and estrogen dependence of SUMO1 in ER + breast cancer pathology.
T47D cells were cultured on coverslips for 24 h followed by 48 h growth in serum starved media. […] Cells were fixed for 10 min with 4% paraformaldehyde at room temperature was followed by three washes with ice-cold PBS-T (0.1% Tween 20, PBS) and 10 min of permeabilization with 0.5% saponin in PBS. Blocking was performed with 1% bovine serum albumin (BSA) in PBS-T for 30 min. Cells were incubated in a humidified chamber with 1:500 rabbit monoclonal anti-SUMO1 antibody (Abcam Ltd, Cambridge, UK, ab32058) in 1% BSA for 1 h at room temperature. Cells were washed 3 times with PBS-T, then incubated in the dark for 1 h with 1:1000 goat anti-rabbit IgG H&L (Alexa Fluor® 488) antibody (Abcam Ltd, ab150077) as well as 1:1000 phalloidin-iFluor 594 reagent (Abcam Ltd, ab176757) in 1% BSA. […] Quantification of nuclear fluorescent signal was performed using ImageJ 1.53t software. Fluorescent intensity of all nuclei within captured frames were measured and normalized by subtracting mean background fluorescence of 5 representative areas.

[4] = system: gene expression in T47D breast cancer cells; assay: qPCR gene expression in T47D cells; type: cell-based; details: 1 μM + 1 nM E2, 16 h
[5] = system: gene expression in MCF7:WS8 breast cancer cells; assay: qPCR gene expression in MCF7:WS8 cells
[6] = target: T1, ERα-SRC3 binding (Homo sapiens, UniProt P03372); assay: NanoBiT ERα-SRC3 assay in HEK293T cells; type: cell-based; details: 1 μM antagonist + 1 nM E2, 4 h
T1 construct: expressed in transfected cells; host or cells: HEK293T, transient co-transfection of pcDNA3.1 plasmids (gift of D. P. McDonnell)
T1 sequence (P03372 1-595): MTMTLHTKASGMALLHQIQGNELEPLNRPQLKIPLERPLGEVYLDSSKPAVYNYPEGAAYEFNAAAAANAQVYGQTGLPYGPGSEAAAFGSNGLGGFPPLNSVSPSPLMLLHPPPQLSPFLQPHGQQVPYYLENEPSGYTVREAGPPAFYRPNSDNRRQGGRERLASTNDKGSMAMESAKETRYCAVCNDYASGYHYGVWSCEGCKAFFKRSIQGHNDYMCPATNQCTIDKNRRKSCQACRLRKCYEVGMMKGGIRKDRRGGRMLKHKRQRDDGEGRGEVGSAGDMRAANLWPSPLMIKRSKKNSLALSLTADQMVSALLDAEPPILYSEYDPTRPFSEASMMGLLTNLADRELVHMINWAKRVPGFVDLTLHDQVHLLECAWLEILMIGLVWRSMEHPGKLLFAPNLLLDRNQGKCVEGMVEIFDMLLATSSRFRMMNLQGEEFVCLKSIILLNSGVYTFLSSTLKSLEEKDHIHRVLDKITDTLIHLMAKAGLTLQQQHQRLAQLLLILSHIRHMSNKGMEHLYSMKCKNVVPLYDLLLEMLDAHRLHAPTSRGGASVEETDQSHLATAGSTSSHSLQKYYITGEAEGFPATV
Method: SERMs and SERDs favor an ERα LBD protein conformation that occludes transcriptional coactivator binding. We used nanoBiT to study how the first set of T6I molecules inhibited ERα and steroid receptor coactivator-3 (SRC3) binding in HEK293T cells. […] Plasmids for smBiT-ERα and lgBiT-SRC3 were kindly donated by Dr. Donald P. McDonnell. Plasmids were co-transfected into HEK293T cells and placed in serum-starved medium for 48 h.
HEK293T cells were grown in 96-well clear bottom, white-walled plates to around 70% confluence. PCDNA 3.1 plasmids containing N-terminally tagged smBiT ERα or lgBiT SRC3 nuclear recognition domain (NRD) were kindly donated by Dr. Donald P. McDonnell. These plasmids were co-transfected with a total of 0.1 µg smBiT ERα and 0.1 µg LgBiT SRC3 NRD using Turbofectin 8.0 at a 3:1 ratio. After 24 h cells were placed in serum-starved media and allowed to acclimate for an additional 48–72 h. […] Data shown are the average of three independent replicates.

[7] = target: T2, ERα (Homo sapiens, UniProt P03372); assay: ERE transcriptional reporter gene assay in MCF7 cells; type: cell-based; parameters: endogenous in cells; host or cells: MCF7 cells with 3x-ERE-GFP reporter; details: MCF7, 1 nM E2
T2 sequence (P03372 1-595): T1 sequence (P03372 1-595)
Method: A cyclopropyl group was used in place of RAD1901’s ethylamine. […] We initially synthesized 4 derivatives comprised of different pharmacophores on the analogous steroidal A ring (Fig. 2d) and used an ERE reporter gene assay in MCF7 breast cancer cells to measure their transcriptional inhibitory activities.
This assay was performed in accordance with a previous report. MCF7 breast cancer cells with a 3x-estrogen response element-green fluorescent protein (GFP) reporter gene construct under a CMV promoter were plated in 96-well dishes at 3000 cells per well. Cells were cultured for 48 h in stripped media that included charcoal stripped fetal bovine serum (FBS). Cells were treated with increasing concentrations of antiestrogen (5 pm to 1 µM) for 24 h. Subsequently, percent GFP-positive cells were imaged using a BioTek Cytation 5 live cell imager. All assays were performed three times with three technical replicates each.

[8] = target: T3, halo-ERα (Homo sapiens, UniProt P03372); assay: Live-cell halo-ERα accumulation assay in T47D cells; type: cell-based; details: 1 μM, 24 h
T3 construct: expressed in transfected cells; host or cells: T47D cells, doxycycline-inducible halo-ERα
T3 sequence (P03372 1-595): T1 sequence (P03372 1-595)
From the text: SERMs and SERDs differentially affect ERα cellular lifetime/accumulation, which correlates with tissue-specific partial agonistic activities. SERMs increase WT ERα lifetime and are partial agonists in the bone and uterine epithelium by maintaining AF-1-dependent transcriptional coactivator recruitment. SERDs induce rapid WT ERα degradation and are pure antagonists[14],[17],[19],[22],[33]. […] We used an in-cell Western approach to measure how a subset of T6Is affected ERα levels in MCF7:WS8 breast cancer cells. […] A live cell halo-tagged ERα assay was then used to measure the impact of an expanded set of T6Is on receptor accumulation in T47D breast cancer cells after 24 h treatment. […] The difference between T6I-14 and 4OHT was not statistically significant in this assay. […] The IC50 values generally trended with observed differences in transcriptional IC50 (Fig. 2), while the effect at maximum dose varied greatly.
This assay was performed in accordance with a previous report. T47D breast cancer cells with a halo-ERα under a doxycycline (dox) control were grown in 96-well dishes starting at 3000 cells per well. Cells were placed in serum-starved media for 48–72 h then simultaneously treated with 1 µg/mL dox, and 1 µM Halo-TMR direct (Promega, G2991) alongside 5 pm to 1 µM compound for 24 h. […]

[9] = system: MCF7 breast cancer cells; assay: Crystal violet cellular viability assay; type: cell-based; details: MCF7, 1 to 1000 nM, 1 nM E2, 7 days
Method: (§1) In addition, we used a crystal violet assay to measure the effect of T6I-14-1 on MCF7 viability.
MCF7 breast cancer cells were placed in 24-well dishes at 15,000 cells per well. After 24 h, they were placed in serum-starved media for 48 to 72 h. […] After treatment, cells were stained with 0.4% crystal violet in 50% methanol for 30 min. Cells were washed with PBS to remove excess dye. 500 µL of methanol was then added to each well to dissolve the dye and placed on a rocker for 30 min at room temperature and the absorbance at 570 was recorded.

[10] = system: T47D breast cancer cells; assay: Cellular proliferation (label-free cell count), T47D; type: cell-based; details: 0.1 and 1 μM, 1 nM E2
Method: as §1
MCF7, MCF7:WS:8, Y537S ESR1 MCF7 and T47D breast cancer cell lines were grown in 96-well dishes at a starting cell count of 1000 cells per well. […] Cells were grown in a BioSpa attached to a BioTek Cytation 5 and were automatically counted every twelve hours for 7–10 days or until the E2-only wells reached confluence. Media was replaced every 4 days and drug was maintained in each media change. Each study was repeated three times with three technical replicates each.

[11] = target: T2, ERα; assay: In-cell Western of ERα levels in T47D cells; type: cell-based; parameters: In-cell Western of endogenous ERα levels normalized to cell count in T47D breast cancer cells; endogenous in cells; host or cells: T47D breast cancer cells; details: 1 μM
Method: An in-cell Western assay was used to measure the effect of the purified T6I-29 enantiomers on the accumulation of ERα in T47D breast cancer cells at 1 μM dose.
In-cell Western analysis was performed in a similar manner as previously described. Briefly, T47D or MCF7:WS8 breast cancer cells were grown in blackout 96-well plates starting at 3000 cells per well. After 24 h, cells were placed in serum-starved media and allowed to acclimate for 48–72 h. Cells were treated with hormone, SERM, or SERD alongside vehicle control for 24 h. Only interior wells were used to avoid edge effects. Cells were fixed with 4% formaldehyde and permeabilized with 0.1% Triton X-100. Plates were blocked with Intercept blocking buffer (LI-COR). Santa Cruz F10 anti-ERα antibody (sc-8002) was used as the primary at 1:200-500 dilution. Secondary antibody was a goat anti-mouse IgG 800 IRDye antibody (926-32210) from LI-COR. Cells were also treated with CellTag700 (926-41090) to control for differences in cell count between wells. All data were collected on a LI-COR Odyssey DLx and analyzed using Emperia Studio. Each experiment was comprised of three replicates.

SMILES	AP1 Induction [1]	SUMO-related differentially expressed genes (RNAseq) [2]	Reactome pathways relating to SUMO E3 ligases ([2]; 1 μM + 1 nM E2)	SUMO1 protein expression (immunofluorescence) [3]	E2F1 mRNA [4]	CDK1 mRNA ([5]; MCF7:WS8)	E2F1, CDK1 and SUMO1 mRNA ([5]; MCF7:WS8, compared with T47D)	inhibition of ERα-SRC3 binding (luminescence) [6]	anti-transcriptional activity (in words) [7]	halo-ERα accumulation at maximum dose [8]	cellular viability (crystal violet) [9]	cell count after 7 days (fold-change normalized to vehicle) [10]	ERα levels by in-cell Western [11]
C[C@]12CC[C@@H]3c4ccc(O)cc4C[C@@H](CCCCCCCCC[S+]([O-])CCCC(F)(F)C(F)(F)F)[C@H]3[C@@H]1CC[C@@H]2O (stereo partly shown) [ICI, fulvestrant]	0.25 + 0.08	upregulated SUMO1 and downregulated the SENP enzymes	significantly enriched	enriched SUMO1 expression in the nuclei	reduced impact	downregulated its expression	greater downregulation of E2F1 and CDK1 and upregulation of SUMO1	–	–	–	–	–	–
CCN1CC(Oc2ccc(C3c4ccc(O)cc4CC4(CC4)N3C(=O)c3ccccc3)cc2)C1 (stereo not shown) [T6I-1]	0.30 + 0.07	–	–	–	–	–	–	the least	ineffective anti-transcriptional agent	SERD-like decrease to ERα levels; also recorded: weak ERα-degrading activities	–	–	–
CCCN1CCC(COc2ccc(C3c4ccc(O)cc4CC4(CC4)N3C(=O)c3ccccc3)cc2)C1 (stereo not shown) [T6I-14-1]	0.55 + 0.09	–	–	–	–	–	–	among the most potent; also recorded: significant reduction compared to both 4OHT (p = 0.03) and E2 (p = 0.004)	–	–	reduced MCF7 cellular viability across all doses compared to 4OHT and ICI	significantly more effective (p = 0.01) than ICI	enhanced ERα levels past 4OHT
